Experimental findings from patent US6509341B1, “Carboxylic acid derivatives, carrying amido side-chains; production and use as endothelin receptor antagonists” (Abbott Laboratories, priority 1997, dated 2003) are described below.

One series addresses T1, human ETB receptor (Homo sapiens, UniProt P24530).
T1 construct: expressed in transfected cells; host or cells: CHO cells (membrane preparation)
T1 sequence (P24530 27-442): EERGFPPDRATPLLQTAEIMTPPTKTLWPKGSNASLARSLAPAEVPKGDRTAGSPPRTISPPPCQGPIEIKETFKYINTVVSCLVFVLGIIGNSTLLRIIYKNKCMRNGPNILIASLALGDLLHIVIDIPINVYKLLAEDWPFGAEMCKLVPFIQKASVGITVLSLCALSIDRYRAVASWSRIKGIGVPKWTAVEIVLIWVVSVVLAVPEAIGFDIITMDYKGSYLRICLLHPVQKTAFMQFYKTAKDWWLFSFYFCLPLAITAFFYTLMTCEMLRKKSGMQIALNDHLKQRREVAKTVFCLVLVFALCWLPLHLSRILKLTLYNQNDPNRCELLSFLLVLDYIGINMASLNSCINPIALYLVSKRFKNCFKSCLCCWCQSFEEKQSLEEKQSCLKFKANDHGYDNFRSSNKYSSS
Put plainly: ETB receptor binding assay ([125I]-ET3, CHO cell membranes). The note with it: cloned human ETB receptor, 25 pM [125I]-ET3, 25° C. The method, then: (§1) Cloned human ETA or ETB receptor-expressing CHO cells were employed for binding studies.
(§2) The ETA or ETB receptor-expressing CHO cells were grown in DmeM NUT MIX F12-medium (Gibco, No. 21331-020) with 10% fetal calf serum (PAA Laboratories GmbH, Linz, No. A15-022), 1 mM glutamine (Gibco No. 25030-024), 100 U/ml penicillin and 100 μg/ml streptomycin (Gibco [sic], Sigma No. P-0781). After 48 hours, the cells were washed with PBS and incubated with 0.05% trypsin-containing PBS at 37° C. for 5 minutes. This was followed by neutralization with medium, and the cells were collected by centrifugation at 300×g.
(§3) For the membrane preparation, the cells were adjusted to a concentration of 10^8 cells/ml of buffer (50 mM tris.HCL [sic] buffer, pH 7.4) and then disintegrated by ultrasound Branson Sonifier 250, 40-70 seconds/constant/output [sic] 20).
(§4) For the ETA and ETB receptor binding assay, the membranes were suspended in incubation buffer (50 mM tris-HCl, pH 7.4 with 5 mM MnCl2, 40 mg/ml Bacitracin and 0.2% BSA) in a concentration of 50 μg of protein per assay mixture and incubated with 25 pM [125I]-ET1 [sic] (ETA receptor assay) or 25 pM [125I]-ET3 [sic] (ETB receptor assay) at 25° C. in the presence and absence of test substance. The nonspecific binding was determined with 10^−7 M ET1. After 30 min, filtration through GF/B glass fiber filters (Whatman, England) in a Skatron cell harvester (Skatron, Lier, Norway) was carried out to separate free and bound radioligand, and the filters was washed with ice-cold tris-HCl buffer, pH 7.4 with 0.2% BSA. The radioactivity collected on the filters was quantified using a Packard 2200 CA liquid scintillation counter.
(§5) Receptor binding data were measured by the binding assay described above for the compounds listed below.

The next series deals with T2, human ETA receptor (Homo sapiens, UniProt P25101).
T2 construct: expressed in transfected cells; host or cells: CHO cells (membrane preparation)
T2 sequence (P25101 21-427): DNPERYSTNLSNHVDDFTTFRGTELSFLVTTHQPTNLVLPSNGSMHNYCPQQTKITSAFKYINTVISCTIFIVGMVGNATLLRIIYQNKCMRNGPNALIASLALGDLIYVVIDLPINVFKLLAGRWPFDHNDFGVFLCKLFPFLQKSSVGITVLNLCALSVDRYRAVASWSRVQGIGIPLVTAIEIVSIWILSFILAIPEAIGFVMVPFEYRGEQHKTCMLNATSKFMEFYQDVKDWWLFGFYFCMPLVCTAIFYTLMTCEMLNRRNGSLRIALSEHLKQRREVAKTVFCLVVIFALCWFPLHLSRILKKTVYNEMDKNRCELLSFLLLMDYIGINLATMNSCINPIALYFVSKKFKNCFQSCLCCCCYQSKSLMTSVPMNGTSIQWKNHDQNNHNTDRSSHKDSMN
Put plainly: ETA receptor binding assay ([125I]-ET1, CHO cell membranes). The note with it: cloned human ETA receptor, 25 pM [125I]-ET1, 25° C. The method, then: as §1, §2, §3, §4, §5

In general, Ki refers to a dissociation constant, usually derived from enzyme kinetics or from competition with a known ligand. For the molecule `Cc1cc(C)nc(OC(C(=O)O)C(OCC(=O)N(C)c2ccccc2)(c2ccccc2)c2ccccc2)n1` (centres unmarked) [Compound I-109, 2-(4,6-Dimethyl-2-pyrimidinyloxy)-3-(N-methyl-N-phenylcarbamoylmethoxy)-3,3-diphenylpropionic acid], the figures for the Ki on human ETB receptor and at human ETA receptor were 142 nM and 0.4 nM, respectively. Consider `COc1cc(C)nc(OC(C(=O)O)C(OCC(=O)N(C)c2ccccc2)(c2ccccc2)c2ccccc2)n1` (centres unmarked) [Compound I-111, 2-(4-methyl-6-methoxy-2-pyrimidinyloxy)-3-(N-methyl-N-phenylcarbamoylmethoxy)-3,3-diphenylpropionic acid], for which the Ki on human ETB receptor worked out at 109 nM; at human ETA receptor, 0.3 nM.

For `Cc1cc(C)nc(OC(C(=O)O)C(OCC(=O)N2CCc3ccccc3C2)(c2ccccc2)c2ccccc2)n1` (centres unmarked) [Compound I-307, 2-(4,6-Dimethyl-2-pyrimidinyloxy)-3-(2-oxo-2-(1,2,3,4-tetrahydroisoquinolin-2-yl)ethoxy)-3,3-diphenylpropionic acid], the figures for the inhibition constant (Ki) at human ETB receptor and at human ETA receptor were 10 nM and 1.6 nM, respectively. Take `COc1cc(C)nc(OC(C(=O)O)C(OCC(=O)N2CCc3ccccc3C2)(c2ccccc2)c2ccccc2)n1` (centres unmarked) [Compound I-309, 2-(4-Methyl-6-methoxy-2-pyrimidinyloxy)-3-(2-oxo-2-(1,2,3,4-tetrahydroisoquinolin-2-yl)ethoxy)-3,3-diphenylpropionic acid]: the Ki at human ETB receptor was 12 nM; at human ETA receptor, 1 nM. Turning to `CCCCN(CCCC)C(=O)COC(c1ccccc1)(c1ccccc1)C(Oc1nc(C)cc(C)n1)C(=O)O` (centres unmarked) [Compound I-347, 2-(4,6-Dimethyl-2-pyrimidinyloxy)-3-(N,N-dibutylcarbamoylmethoxy)-3,3-diphenylpropionic acid], the figures for the Ki at human ETB receptor and at human ETA receptor were 155 nM and 3.8 nM, respectively.

As to `CCCCN(CCCC)C(=O)COC(c1ccccc1)(c1ccccc1)C(Oc1nc(C)cc(OC)n1)C(=O)O` (centres unmarked) [Compound I-349, 2-(4-Methyl-6-methoxy-2-pyrimidinyloxy)-3-(N,N-dibutylcarbamoylmethoxy)-3,3-diphenylpropionic acid], the results for the Ki on human ETB receptor and at human ETA receptor were 142 nM and 3 nM, respectively. In general, melting point refers to the temperature, or range, at which the solid turns liquid. Turning to `COc1cc2c(cc1OC)CN(C(=O)COC(c1ccccc1)(c1ccccc1)C(Oc1nc(C)cc(C)n1)C(=O)O)CC2` (centres unmarked) [Example 34, 2-(4,6-Dimethylpyrimidin-2-yloxy)-3-(2-oxo-2-(6,7-dimethoxy-1,2,3,4-tetrahydroisoquinolin-2-yl)ethoxy)-3,3-diphenylpropionic acid], the melting point was in the range of 145 to 148 °C.

As to `Cc1cc(C)nc(OC(C(=O)O)C(OCC(=O)N2Cc3ccccc3C(C)(C)C2)(c2ccccc2)c2ccccc2)n1` (centres unmarked) [Example 35, 2-(4,6-Dimethylpyrimidin-2-yloxy)-3-(2-oxo-2-(4,4-dimethyl-1,2,3,4-tetrahydroisoquinolin-2-yl)ethoxy)-3,3-diphenylpropionic acid], the melting point is 185 to 187 °C.
